According to publication PMC6151428, “Discovery of Novel N-Substituted Prolinamido Indazoles as Potent Rho Kinase Inhibitors and Vasorelaxation Agents” (Molecules : A Journal of Synthetic Chemistry and Natural …, 2017):
pEC50, pIC50: −log10 of the molar value.

How the values were obtained:
rat aortic rings [1] = experiment: Vasorelaxant activity test, high-potassium model; conditions: rat aortic rings constricted with high K+ (60 mmol/L); a: mean N = 6; b: single determination; -- = No activity
Text: (§1) Abnormalities in the Rho/ROCK signaling pathway are associated with various cardiovascular diseases, especially hypertension. The inhibition of the Rho/ROCK pathway can cause the vessels to relax. The norepinephrine (NE)- or potassium chloride (KCl)-induced model of the rat aortic ring can trigger sustained vessel contraction and is usually used to evaluate vasorelaxant activity. DL0805 has shown vasorelaxant activity. Therefore, the nine compounds with significant inhibition against ROCK I were further tested for their vasorelaxant activity in rat aortic rings in both the high-potassium and NE models (Table 3). […] The potent active compound 4b with excellent activity has been further evaluated, and further pharmacokinetic and safety evaluations are in progress.
(§2) Male Sprague-Dawley rats weighing 240–280 g (Vital River Laboratories, Beijing, China) were maintained in a 12-h light/dark cycle at 24 °C in a relative humidity of 60% room, and received food and water ad libitum. The animal care and handling were performed in accordance with the Guide for the Care and Use of Laboratory Animals published by the US National Institutes of Health and the Laboratories Institutional Animal Care and Use Committee of the Chinese Academy of Medical Science and Peking Union Medical College (ethic approval number: 00001012).
(§3) The vasorelaxant activity assay was performed as described previously. Briefly, the descending thoracic aorta was isolated after rats were euthanized by cervical dislocation. Then, the aorta was cut into ring segments (3–4 mm in length). The endothelial layer of the aorta was destroyed by gently rubbing the luminal surface with a moist cotton swab when necessary. Two stainless-steel triangles were inserted into the lumen of each ring. One triangle was fixed, and the other attached to a force transducer. Changes in isometric force were recorded on a BIOPAC polygraph (MP100WSW, Biopac Systems, Inc, Goleta, CA, USA). The rings were mounted in organ baths containing 10 mL Krebs-Henseleit (K-H) buffer with the following composition (mM): NaCl 120, KCl 4.8, MgSO4 1.4, KH2PO4 1.2, glucose 11.0, CaCl2 2.5, NaHCO3 25.0 and EDTA 0.01. The K-H buffer was continuously bubbled with 95% O2/5% CO2 at 37 °C. Rings were allowed to equilibrate for 60 min at a resting tension of 1.2 g with changes of buffer every 20 min.
(§4) After the equilibration period, the aortic rings were constricted with a high K^+ (60 mM) K-H solution to stimulate the tissue and to test its availability. Then, the rings were washed with normal K-H buffer to restore the basic tension of 1.2 g. The aortic rings were then stimulated with a high K^+ (60 mmol/L) K-H buffer ornorepinephrine (1 μM) to evaluate the vasorelaxant effects of the compounds. When the contraction reached the platform, compounds were added to the bath in batches at 5-min intervals to reach the accumulative concentrations of 1, 2, 5, 10, 25 and 50 μM. The tension of vessels was recorded and nonlinear regression was used to calculate the EC50 values.

rat aortic rings [2] = experiment: Vasorelaxant activity test, NE model; conditions: rat aortic rings constricted with norepinephrine (1 μM); a: mean N = 6; b: single determination; -- = No activity
Text: as §1, §2, §3, §4

ROCK I = target: T1, ROCK I (Homo sapiens, UniProt Q13464); experiment: Rho kinase activity assay (Cyclex CY-1160 kit); type: biochemical; conditions: for pIC50: a: means of multiple experiments (N = 4), errors within 30% of the mean, b: single determinations, read-out: IC50 against ROCK I; for ROCK I activity compared in words: comparison with DL0805 or between series; for fold more active than DL0805 (ROCK I IC50): relative to DL0805 IC50 6.7 μM
T1 construct: purchased Cyclex, Nagoya, Japan CY-1160
Experimental: Briefly, the compounds at 20 μM were pre-incubated in a system wherein ROCK I (0.02 ng/μL) phosphorylates the kinase substrate’s myosin-binding subunit (MBS) pre-absorbed onto the microplate in the presence of Mg^2+ and ATP. Then, the system was washed after incubation at 30 °C for 30 min. 100 μL of horseradish peroxidase-conjugated anti-AF20 antibody was added to the wells and then incubated for 30 min at room temperature. The reaction system was then incubated with the substrate tetra-methylbenzidine (TMB), which can be catalyzed from a colorless solution to a blue solution. The absorbance was measured at a wavelength of 450 nm on a microplate reader. The color reflects the relative level of ROCK I activity. The inhibitory rates of the compounds on ROCK I were obtained from OD 450 nm and the IC50 values were calculated by nonlinear regression.

rat aortic rings [3] = experiment: Ex-vivo vasorelaxant activity in rat aortic rings (model not specified)
Text: as §1
The vasorelaxant activity assay was performed as described previously. Briefly, the descending thoracic aorta was isolated after rats were euthanized by cervical dislocation. Then, the aorta was cut into ring segments (3–4 mm in length). […] Changes in isometric force were recorded on a BIOPAC polygraph (MP100WSW, Biopac Systems, Inc, Goleta, CA, USA). […]
After the equilibration period, the aortic rings were constricted with a high K^+ (60 mM) K-H solution to stimulate the tissue and to test its availability. […] The tension of vessels was recorded and nonlinear regression was used to calculate the EC50 values.

[4] = compound concentration 20 μM, single determinations

T1 sequence (Q13464 whole entry, species assumed): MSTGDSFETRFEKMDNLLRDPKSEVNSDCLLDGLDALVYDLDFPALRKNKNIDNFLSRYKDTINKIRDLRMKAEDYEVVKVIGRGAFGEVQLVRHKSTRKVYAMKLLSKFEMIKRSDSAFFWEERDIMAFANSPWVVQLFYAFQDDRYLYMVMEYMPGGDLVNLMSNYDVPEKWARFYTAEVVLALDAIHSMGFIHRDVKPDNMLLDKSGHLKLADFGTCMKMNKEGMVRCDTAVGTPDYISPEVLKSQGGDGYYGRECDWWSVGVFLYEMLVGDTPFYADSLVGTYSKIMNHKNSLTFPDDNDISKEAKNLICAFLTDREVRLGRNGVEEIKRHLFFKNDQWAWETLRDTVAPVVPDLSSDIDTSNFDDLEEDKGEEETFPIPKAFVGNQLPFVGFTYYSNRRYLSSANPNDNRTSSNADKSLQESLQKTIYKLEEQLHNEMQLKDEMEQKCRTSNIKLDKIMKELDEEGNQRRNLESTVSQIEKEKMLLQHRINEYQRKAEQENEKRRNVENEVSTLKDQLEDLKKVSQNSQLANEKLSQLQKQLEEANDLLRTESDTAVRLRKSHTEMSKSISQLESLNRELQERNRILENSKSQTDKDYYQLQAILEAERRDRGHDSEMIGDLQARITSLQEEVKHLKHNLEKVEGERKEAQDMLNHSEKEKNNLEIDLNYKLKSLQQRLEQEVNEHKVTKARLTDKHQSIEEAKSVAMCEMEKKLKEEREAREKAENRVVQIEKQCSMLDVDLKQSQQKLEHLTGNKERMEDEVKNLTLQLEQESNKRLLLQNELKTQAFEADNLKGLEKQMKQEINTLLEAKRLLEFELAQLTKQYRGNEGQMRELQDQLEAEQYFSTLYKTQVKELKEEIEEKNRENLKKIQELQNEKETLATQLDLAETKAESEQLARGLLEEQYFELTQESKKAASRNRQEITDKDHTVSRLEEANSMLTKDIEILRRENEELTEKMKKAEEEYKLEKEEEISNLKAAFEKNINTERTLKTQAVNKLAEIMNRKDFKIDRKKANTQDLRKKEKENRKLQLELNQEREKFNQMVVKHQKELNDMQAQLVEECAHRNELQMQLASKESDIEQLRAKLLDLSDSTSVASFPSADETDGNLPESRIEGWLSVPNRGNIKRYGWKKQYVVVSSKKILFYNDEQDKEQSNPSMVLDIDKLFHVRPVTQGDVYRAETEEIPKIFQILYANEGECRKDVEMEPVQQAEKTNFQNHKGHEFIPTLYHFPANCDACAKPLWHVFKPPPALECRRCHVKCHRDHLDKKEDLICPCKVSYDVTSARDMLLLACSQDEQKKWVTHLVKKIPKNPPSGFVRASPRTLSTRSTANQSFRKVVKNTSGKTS

Row | Molecule | pEC50 (rat aortic rings [1]) | melting point | pEC50 (rat aortic rings [2]) | pIC50 (ROCK I) | inhibition at 20 µM (ROCK I; [4]) | ROCK I activity compared in words (ROCK I) | vasorelaxant activity compared with fasudil (rat aortic rings [3]) | fold more active than DL0805 (ROCK I IC50) (ROCK I) | % Inhibition of ROCK I (ROCK I; [4])
1 | Cc1ccc(C(=O)N2CCC(C(=O)Nc3ccc4[nH]ncc4c3)C2)cc1 (centres unmarked) [Compound 5b, N-(1H-Indazol-5-yl)-1-(4-methylbenzoyl)pyrrolidine-3-carboxamide] | 4.22 | 224 to 226 °C | 4.81 | 4.94 | 54.9% |  |  |  | 
2 | COc1ccc(C(=O)N2CCC(C(=O)Nc3ccc4[nH]ncc4c3)C2)cc1 (centres unmarked) [Compound 5c, N-(1H-Indazol-5-yl)-1-(4-methoxybenzoyl)pyrrolidine-3-carboxamide] |  | 242 to 244 °C |  |  | 19.1% |  |  |  | 
3 | O=S(=O)(c1cccc2cnccc12)N1CCCNCC1 [fasudil, reference compound] | 5.26 |  | 5.33 |  |  |  |  |  | 
4 | O=C(Nc1ccc2cn[nH]c2c1)[C@@H]1CCCN1Cc1ccccc1 [Compound 3c, (S)-1-Benzyl-N-(1H-indazol-6-yl)pyrrolidine-2-carboxamide] |  | 195 to 197 °C |  |  | 23.7% |  |  |  | 
5 | COc1ccc(CN2CCC(C(=O)Nc3ccc4[nH]ncc4c3)C2)cc1 (centres unmarked) [Compound 4c, N-(1H-Indazol-5-yl)-1-(4-methoxybenzyl)pyrrolidine-3-carboxamide] | 5.24 |  | 5.25 | 5.73 | 53.3% | activity profiles superior to DL0805 |  |  | 
6 | Cc1ccc(CN2CCC[C@@H]2C(=O)Nc2ccc3[nH]ncc3c2)cc1 [Compound 2e, (R)-N-(1H-Indazol-5-yl)-1-(4-methylbenzyl)pyrrolidine-2-carboxamide] |  | 203 to 205 °C |  |  |  |  |  |  | 
7 | O=C(Nc1ccc2[nH]ncc2c1)C1CCN(Cc2ccc(F)cc2)C1 (centres unmarked) [Compound 4g, 1-(4-Fluorobenzyl)-N-(1H-indazol-5-yl)pyrrolidine-3-carboxamide] | 4.71 | 202 to 203 °C | 5.05 | 5.85 | 63.8% | activity profiles superior to DL0805 |  |  | 
8 | O=C(Nc1ccc2[nH]ncc2c1)C1CCN(C(=O)c2ccc([N+](=O)[O-])cc2)C1 (centres unmarked) [Compound 5e, N-(1H-Indazol-5-yl)-1-(4-nitrobenzoyl)pyrrolidine-3-carboxamide] |  | 177 to 178 °C |  |  | 45.4% |  |  |  | 
9 | O=C(Nc1ccc2[nH]ncc2c1)C1CCCN1Cc1ccccc1 (centres unmarked) [Compound 2a, 1-Benzyl-N-(1H-indazol-5-yl)pyrrolidine-2-carboxamide] |  | 200 to 201 °C |  |  | 27.2% |  |  |  | 
10 | O=C(Nc1ccc2[nH]ncc2c1)C1CCN(C(=O)c2ccc(Br)cc2)C1 (centres unmarked) [Compound 5d, 1-(4-Bromobenzoyl)-N-(1H-indazol-5-yl)pyrrolidine-3-carboxamide] |  | 250 to 251 °C |  |  | 27.9% |  |  |  | 
11 | O=C(Nc1ccc2[nH]ncc2c1)[C@H]1CCCN1Cc1ccccc1 [Compound 2b, (R)-1-Benzyl-N-(1H-indazol-5-yl)pyrrolidine-2-carboxamide] |  | 199 to 201 °C |  |  | 24.3% |  |  |  | 
12 | O=C(Nc1ccc2[nH]ncc2c1)[C@H]1CCN(Cc2ccccc2)C1 [Compound 4h, (S)-1-Benzyl-N-(1H-indazol-5-yl)pyrrolidine-3-carboxamide] | 4.49 | 203 to 204 °C | < 4.30 | 6.38 | 54.8% | activity profiles superior to DL0805 |  |  | 
13 | O=C(Nc1ccc2[nH]ncc2c1)[C@@H]1CCN(Cc2ccccc2)C1 [Compound 4i, (R)-1-Benzyl-N-(1H-indazol-5-yl)pyrrolidine-3-carboxamide] | 5.22 | 203 to 204 °C | 4.94 | 5.14 | 73.9% |  |  |  | 
14 | O=C(Nc1ccc2[nH]ncc2c1)C1CCN(Cc2ccc(Br)cc2)C1 (centres unmarked) [Compound 4d, 1-(4-Bromobenzyl)-N-(1H-indazol-5-yl)pyrrolidine-3-carboxamide] | 4.24 | 235 to 236 °C | 4.33 | 6.29 | 62.5% | activity profiles superior to DL0805 |  |  | 
15 | O=C(Nc1ccc2[nH]ncc2c1)[C@@H]1CCCN1Cc1ccccc1 [Compound 2c, (S)-1-Benzyl-N-(1H-indazol-5-yl)pyrrolidine-2-carboxamide] |  | 202 to 203 °C |  |  | 24.6% |  |  |  | 
16 | O=C(Nc1ccc2[nH]ncc2c1)C1CCN(C(=O)c2ccc(Cl)cc2)C1 (centres unmarked) [Compound 5f, 1-(4-Chlorobenzoyl)-N-(1H-indazol-5-yl)pyrrolidine-3-carboxamide] | < 4.30 | 225 to 227 °C | < 4.30 | 5.14 | 55.2% |  |  |  | 
17 | Cc1ccc(CN2CCC[C@H]2C(=O)Nc2ccc3[nH]ncc3c2)cc1 [Compound 2f, (S)-N-(1H-Indazol-5-yl)-1-(4-methylbenzyl)pyrrolidine-2-carboxamide] |  | 204 to 206 °C |  |  | 21.3% |  |  |  | 
18 | O=C(Nc1ccc2[nH]ncc2c1)C1CCN(C(=O)c2ccccc2)C1 (centres unmarked) [Compound 5a, 1-Benzoyl-N-(1H-indazol-5-yl)pyrrolidine-3-carboxamide] |  | 211 to 213 °C |  |  | 42.5% |  |  |  | 
19 | O=C(Nc1ccc2cn[nH]c2c1)C1CCCN1Cc1ccccc1 (centres unmarked) [Compound 3a, 1-Benzyl-N-(1H-indazol-6-yl)pyrrolidine-2-carboxamide] |  | 195 to 196 °C |  |  | 16% |  |  |  | 
20 | Cc1ccc(CN2CCC(C(=O)Nc3ccc4[nH]ncc4c3)C2)cc1 (centres unmarked) [Compound 4b, N-(1H-Indazol-5-yl)-1-(4-methylbenzyl)pyrrolidine-3-carboxamide] | 5.46 |  | 5.39 | 6.77 | 75.8% | activity profiles superior to DL0805 | comparable vasorelaxant activity to the approved drug fasudil | 39 fold | 
21 | N-(1H-Indazol-5-yl)-1-(4-methoxybenzyl)pyrrolidine-3-carboxamide [Compound 4e] |  |  |  |  |  |  |  |  | 44.7%
22 | N#Cc1ccc(CN2CCC(C(=O)Nc3ccc4[nH]ncc4c3)C2)cc1 (centres unmarked) [Compound 4f, 1-(4-Cyanobenzyl)-N-(1H-indazol-5-yl)pyrrolidine-3-carboxamide] |  | 202 to 204 °C |  |  | 24.5% |  |  |  | 
23 | O=C(Nc1ccc2[nH]ncc2c1)C1CCN(Cc2ccccc2)C1 (centres unmarked) [Compound 4a, 1-Benzyl-N-(1H-indazol-5-yl)pyrrolidine-3-carboxamide] | 5.40 | 203 to 204 °C | 5.25 | 6.57 | 73.2% | activity profiles superior to DL0805 | comparable vasorelaxant activity to the approved drug fasudil | 24 fold | 
24 | Cc1ccc(CN2CCCC2C(=O)Nc2ccc3[nH]ncc3c2)cc1 (centres unmarked) [Compound 2d, N-(1H-Indazol-5-yl)-1-(4-methylbenzyl)pyrrolidine-2-carboxamide] |  | 200 to 202 °C |  |  | 26.6% |  |  |  | 
25 | O=C(Nc1ccc2cn[nH]c2c1)[C@H]1CCCN1Cc1ccccc1 [Compound 3b, (R)-1-Benzyl-N-(1H-indazol-6-yl)pyrrolidine-2-carboxamide] |  | 192 to 193 °C |  |  | 15% |  |  |  | 
